Laboratory results: patent US20060004002A1 (priority 2004, published 2006)

Each compound was assayed against T1, Recombinant human Src (Homo sapiens, UniProt P12931) (assay: Src tyrosine kinase activity assay with poly E4Y and 32P-ATP). Details: poly E4Y, 32P-ATP; NI = no inhibition; read-out: IC50 Value Src.
T1 construct: made in house; host or cells: baculovirus-insect cell system
Type: biochemical
Procedure: Recombinant human Src was expressed using the baculovirus-insect cell system and purified as published (Budde et al., 1993 and 2000). Recombinant Csk and the FGF receptor (FGFr) were expressed as […] fusion proteins using the pGEX expression vector and E. coli, and purified as described (Sun & Budde, 1995).
The tyrosine kinase activity of Src, Csk and FGFr was determined using poly E4Y and ^32P-ATP. Briefly, enzymes were assayed in a reaction mixture […] consisting of 0.15 M EPPS-NaOH (pH 8.0) with 6 mM MgCl2, 0.2 mM γ^32P-ATP (0.2-0.4 mCi/μmol), 10% glycerol, 0.1% Triton X-100, and poly E4Y. Poly E4Y is a synthetic peptide whose phosphorylation is measured in this assay by the addition of the radioactively labeled phosphate from the ATP (Budde et al., 1995). […] When ATP was varied (0, 50, 100 and 250 μM), poly E4Y was kept constant at 150 μg/ml.

T1 sequence (P12931 whole entry): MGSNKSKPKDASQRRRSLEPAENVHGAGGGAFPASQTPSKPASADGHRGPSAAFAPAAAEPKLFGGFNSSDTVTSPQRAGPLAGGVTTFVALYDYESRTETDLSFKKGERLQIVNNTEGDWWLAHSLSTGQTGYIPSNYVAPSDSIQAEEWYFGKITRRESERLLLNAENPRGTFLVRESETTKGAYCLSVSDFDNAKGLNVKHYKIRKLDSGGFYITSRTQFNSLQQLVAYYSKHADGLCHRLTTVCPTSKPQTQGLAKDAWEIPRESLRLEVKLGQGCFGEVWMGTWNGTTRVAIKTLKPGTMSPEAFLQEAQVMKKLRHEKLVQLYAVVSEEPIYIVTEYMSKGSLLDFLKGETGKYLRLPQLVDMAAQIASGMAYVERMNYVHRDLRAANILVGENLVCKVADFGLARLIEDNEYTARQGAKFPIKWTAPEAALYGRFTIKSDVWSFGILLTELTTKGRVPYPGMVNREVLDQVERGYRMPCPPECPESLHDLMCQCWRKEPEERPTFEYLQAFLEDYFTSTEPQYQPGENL

IC50 [nM] | Compound
64 | CCNc1ccc(-c2sc3c(NN=Cc4ccc(OC)c(O)c4)ncnc3c2C)cc1 [Compound 48, 3-Hydroxy-4-methoxybenzaldehyde (6-(4-N-ethylaminophenyl)-7-methylthieno[3,2-d]pyrimidin-4-yl)hydrazone]
4.6 | CCOc1ccccc1-c1sc2c(NN=Cc3ccc(OC)c(OC)c3)ncnc2c1C [Compound 53, 3,4-Dimethoxybenzaldehyde (6-(2-ethoxyphenyl)-7-methylthieno[3,2-d]pyrimidin-4-yl)hydrazone]
4.9 | CCOc1cc(F)ccc1-c1sc2c(NN=Cc3ccc(OC)c(O)c3)ncnc2c1C [Compound 57, 3-Hydroxy-4-methoxybenzaldehyde (6-(2-ethoxy-4-fluorophenyl)-7-methylthieno[3,2-d]pyrimidin-4-yl)hydrazone]
6 | CCOc1cc(F)ccc1-c1sc2c(NN=Cc3ccc(OC)c(O)c3)ncnc2c1O [Compound 61, 3-Hydroxy-4-methoxybenzaldehyde (6-(2-ethoxy-4-fluorophenyl)-7-hydroxythieno[3,2-d]pyrimidin-4-yl)hydrazone]
1.3 | CCOc1ccccc1-c1sc2c(NN=Cc3cc(OC)c(OC)c(OC)c3)ncnc2c1C [Compound 63, 3,4,5-Trimethoxybenzaldehyde (6-(2-ethoxyphenyl)-7-methylthieno[3,2-d]pyrimidin-4-yl)hydrazone]
1.2 | CCOc1ccccc1-c1sc2c(NN=Cc3cc(O)c(OC)c(OC)c3)ncnc2c1C [Compound 64, 3,4-Dimethoxy-5-hydroxybenzaldehyde (6-(2-ethoxyphenyl)-7-methylthieno[3,2-d]pyrimidin-4-yl)hydrazone]
0.99 | CCOc1ccccc1-c1sc2c(NN=Cc3cc(OC)c(O)c(OC)c3)ncnc2c1C [Compound 65, 3,5-Dimethoxy-4-hydroxybenzaldehyde (6-(2-ethoxyphenyl)-7-methylthieno[3,2-d]pyrimidin-4-yl)hydrazone]
6.4 | CCOc1ccccc1-c1sc2c(NN=Cc3ccc4c(c3)OCCO4)ncnc2c1C [Compound 66, 2,3-Dihydro-benzo[1,4]dioxine-6-carbaldehyde (6-(2-ethoxyphenyl)-7-methylthieno[3,2-d]pyrimidin-4-yl)hydrazone]
20 | CCOc1ccccc1-c1sc2c(NN=Cc3cccnc3)ncnc2c1CO [Compound 70, 3-Pyridinecarboxaldehyde (6-(2-ethoxyphenyl)-7-hydroxymethylthieno[3,2-d]pyrimidin-4-yl)hydrazone]
28 | CCOc1ccccc1-c1sc2c(NN=Cc3cccs3)ncnc2c1CO [Compound 71, 2-Thiophenecarboxaldehyde (6-(2-ethoxyphenyl)-7-hydroxymethylthieno[3,2-d]pyrimidin-4-yl)hydrazone]
32 | CCOc1ccccc1-c1sc2c(NN=Cc3ccc(C(=O)O)cc3)ncnc2c1CO [Compound 72, 4-Carboxybenzaldehyde (6-(2-ethoxyphenyl)-7-hydroxymethylthieno[3,2-d]pyrimidin-4-yl)hydrazone]
3 | CCOc1ccccc1-c1sc2c(NN=Cc3cccnc3)ncnc2c1O [Compound 73, 3-Pyridinecarboxaldehyde (6-(2-ethoxyphenyl)-7-hydroxythieno[3,2-d]pyrimidin-4-yl)hydrazone]
0.29 | CCOc1ccccc1-c1sc2c(NN=Cc3ccc(C(=O)O)cc3)ncnc2c1O [Compound 74, 4-Carboxybenzaldehyde (6-(2-ethoxyphenyl)-7-hydroxythieno[3,2-d]pyrimidin-4-yl)hydrazone]
21 | Cc1c(-c2ccc(O)cc2)sc2c(NN=Cc3cccnc3)ncnc12 [Compound 75, 3-Pyridinecarboxaldehyde (6-(4-hydroxyphenyl)-7-methylthieno[3,2-d]pyrimidin-4-yl]hydrazone]
41 | Cc1c(-c2ccc(O)cc2)sc2c(NN=Cc3ccc(C(=O)O)cc3)ncnc12 [Compound 76, 4-Carboxybenzaldehyde (6-(4-hydroxyphenyl)-7-methylthieno[3,2-d]pyrimidin-4-yl]hydrazone]
1400 | CCOc1ccccc1-c1sc2c(NN=Cc3ccccc3Cl)ncnc2c1C [Compound 77, 2-Chlorobenzaldehyde (6-(2-ethoxyphenyl)-7-methylthieno[3,2-d]pyrimidin-4-yl)hydrazone]
0.84 | CCOc1ccccc1-c1sc2c(NN=Cc3ccccc3F)ncnc2c1C [Compound 78, 2-Fluorobenzaldehyde (6-(2-ethoxyphenyl)-7-methylthieno[3,2-d]pyrimidin-4-yl)hydrazone]
250 | CCOc1ccccc1-c1sc2c(NN=Cc3ccc(OC)cc3OC)ncnc2c1C [Compound 79, 2,4-Dimethoxybenzaldehyde (6-(2-ethoxyphenyl)-7-methylthieno[3,2-d]pyrimidin-4-yl)hydrazone]

IC50 [nM] | Compound
6.5 | C=CCOc1ccccc1-c1sc2c(NN=Cc3ccc(OC)c(O)c3)ncnc2c1C [Compound 80, 3-Hydroxy-4-methoxybenzaldehyde (6-(2-allyloxyphenyl)-7-methylthieno[3,2-d]pyrimidin-4-yl)hydrazone]
3900 | Cc1c(-c2ccccc2OCc2ccccc2)sc2c(NN=Cc3cccnc3)ncnc12 [Compound 82, 3-Pyridinecarboxaldehyde (6-(2-benzyloxyphenyl)-7-methylthieno[3,2-d]pyrimidin-4-yl)hydrazone]
29 | CCCOc1ccccc1-c1sc2c(NN=Cc3ccc(OC)c(O)c3)ncnc2c1C [Compound 83, 3-Hydroxy-4-methoxybenzaldehyde (7-methyl-6-(2-propoxyphenyl)thieno[3,2-d]pyrimidin-4-yl)hydrazone]
2.8 | CCOc1ccccc1-c1sc2c(NN=Cc3ccsc3)ncnc2c1O [Compound 93, 3-Thiophenecarboxaldehyde (6-(2-ethoxyphenyl)-7-hydroxythieno[3,2-d]pyrimidin-4-yl)hydrazone]
55 | CCOc1ccccc1-c1sc2c(NN=Cc3ncc[nH]3)ncnc2c1O [Compound 97, 2-Imidazolecarboxaldehyde (6-(2-ethoxyphenyl)-7-hydroxythieno[3,2-d]pyrimidin-4-yl)hydrazone]
9.5 | CCOc1cc(F)ccc1-c1sc2c(NN=Cc3cccs3)ncnc2c1C [Compound 106, 2-Thiophenecarboxaldehyde (6-(2-ethoxy-4-fluorophenyl)-7-methythieno[3,2-d]pyrimidin-4-yl)hydrazone]
55 | CCOc1cc(F)ccc1-c1sc2c(NN=Cc3cccs3)ncnc2c1CO [Compound 107, 2-Thiophenecarboxaldehyde (6-(2-ethoxy-4-fluorophenyl)-7-hydroxymethylthieno[3,2-d]pyrimidin-4-yl)hydrazone]
1.1 | CCOc1cc(F)ccc1-c1sc2c(NN=Cc3cccs3)ncnc2c1O [Compound 109, 2-Thiophenecarboxaldehyde (6-(2-ethoxy-4-fluorophenyl)-7-hydroxythieno[3,2-d]pyrimidin-4-yl)hydrazone]
28 | CCOc1ccccc1-c1sc2c(NN=Cc3c[nH]c(=O)[nH]c3=O)ncnc2c1O [Compound 113, 2,4-Dioxo-1,2,3,4-tetrahydro-pyrimidine-5-carbaldehyde (6-(2-ethoxyphenyl)-7-hydroxythieno[3,2-d]pyrimidin-4-yl)hydrazone]
5.9 | CCOc1ccccc1-c1sc2c(NN=Cc3ccc(C(=O)OC)cc3)ncnc2c1O [Compound 120, Methyl 4-formyl benzoate (6-(2-ethoxyphenyl)-7-hydroxythieno[3,2-d]pyrimidin-4-yl)hydrazone]
45 | CCOc1ccccc1-c1sc2c(NN=Cc3ccc(F)c(Cl)c3)ncnc2c1O [Compound 125, 3-Chloro-4-fluorobenzaldehyde (6-(2-ethoxyphenyl)-7-hydroxythieno[3,2-d]pyrimidin-4-yl)hydrazone]
2.8 | CCOc1ccccc1-c1sc2c(NN=Cc3ccc(C)s3)ncnc2c1O [Compound 128, 5-Methyl-2-thiophenecarboxaldehyde (6-(2-ethoxyphenyl)-7-hydroxythieno[3,2-d]pyrimidin-4-yl)hydrazone]
3.4 | CCOc1ccccc1-c1sc2c(NN=Cc3ccoc3)ncnc2c1O [Compound 129, 3-Furancarboxaldehyde(6-(2-ethoxyphenyl)-7-hydroxythieno[3,2-d]pyrimidin-4-yl)hydrazone]
2.4 | CCOc1ccccc1-c1sc2c(NN=Cc3ccc(NC(C)=O)cc3)ncnc2c1O [Compound 132, 4-Acetamidobenzaldehyde (6-(2-ethoxyphenyl)-7-hydroxythieno[3,2-d]pyrimidin-4-yl)hydrazone]
6.2 | CCOc1ccccc1-c1sc2c(NN=Cc3ccc(N(C)C)cc3)ncnc2c1O [Compound 133, 4-N,N-Dimethylaminobenzaldehyde (6-(2-ethoxyphenyl)-7-hydroxythieno[3,2-d]pyrimidin-4-yl)hydrazone]
4.7 | CCOc1ccccc1-c1sc2c(NN=Cc3cccc(F)c3)ncnc2c1C#N [Compound 139, 3-Fluorobenzaldehyde (7-cyano-6-(2-ethoxyphenyl)thieno[3,2-d]pyrimidin-4-yl)hydrazone]
0.56 | CCOc1cc(F)ccc1-c1sc2c(NN=Cc3cc(OC)c(OCCN(CC)CC)c(OC)c3)ncnc2c1O [Compound 159, 4-(2-Diethylamino-ethoxy)-3,5-dimethoxy-benzaldehyde (6-(2-ethoxy-4-fluorophenyl)-7-hydroxythieno[3,2-d]pyrimidin-4-yl)hydrazone]

Compound | IC50 [nM]
CCOc1ccccc1-c1sc2c(NN=Cc3ccc(O)c(OC)c3)ncnc2c1C [Compound 55] | 3.3
